According to patent US7569578B2, “Heterocyclic anti-migraine agents” (Bristol-Meyers Squibb Company, priority 2003, dated 2009):

These molecules were tested against T1, Human CGRP1 Receptor (Homo sapiens, UniProt O60894+Q16602) (assay: CGRP Binding Assay ([125I]-CGRP radioligand displacement, SK-N-MC membrane homogenate)). Conditions: [125I]-CGRP displacement, SK-N-MC homogenate, room temperature 2 h; read-out: Human CGRP1 Receptor IC50.
T1 construct: endogenous in cells; host or cells: SK-N-MC cells (membrane homogenate)
T1 sequence (Q16602 23-461): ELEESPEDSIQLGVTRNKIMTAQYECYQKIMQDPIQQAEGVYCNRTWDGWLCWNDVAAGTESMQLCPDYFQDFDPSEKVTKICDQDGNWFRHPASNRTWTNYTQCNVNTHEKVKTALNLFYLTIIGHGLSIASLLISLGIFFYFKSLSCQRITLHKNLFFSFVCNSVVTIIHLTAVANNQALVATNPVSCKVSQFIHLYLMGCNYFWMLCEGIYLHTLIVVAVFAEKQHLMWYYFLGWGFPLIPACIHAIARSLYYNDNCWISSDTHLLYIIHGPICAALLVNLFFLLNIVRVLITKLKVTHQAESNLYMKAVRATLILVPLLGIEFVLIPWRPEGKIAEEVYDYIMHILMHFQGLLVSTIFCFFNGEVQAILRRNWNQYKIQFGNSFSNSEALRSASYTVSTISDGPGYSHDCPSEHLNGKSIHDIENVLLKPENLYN
T1 sequence (O60894 27-148): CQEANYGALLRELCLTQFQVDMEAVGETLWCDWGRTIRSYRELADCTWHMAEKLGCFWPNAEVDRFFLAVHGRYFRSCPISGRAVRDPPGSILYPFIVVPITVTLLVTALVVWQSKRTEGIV
Molecule Cc1cc(CC(NC(=O)N2CCC(N3Cc4ccccc4NC3=O)CC2)c2nccn2Cc2ccncc2)cc2cn[nH]c12 (racemic) [Example 73, (±)-N-(2-(7-Methyl-1H-indazol-5-yl)-1-(1-(pyridin-4-ylmethyl)-1H-imidazol-2-yl)ethyl)-4-(2-oxo-1,2-dihydroquinazolin-3(4H)-yl)piperidine-1-carboxamide] has an IC50 of less than 10 nM.
With Cc1cc(CC(NC(=O)N2CCC(N3Cc4ccccc4NC3=O)CC2)c2cc3ccccc3cn2)cc2cn[nH]c12 (stereo not drawn) [Example 50, N-(1-(isoquinolin-3-yl)-2-(7-methyl-1H-indazol-5-yl)ethyl)-4-(2-oxo-1,2-dihydroquinazolin-3(4H)-yl)piperidine-1-carboxamide] the IC50 was less than 10 nM.
With Cc1cc(Cn2ccnc2C(Cc2cc(C)c3[nH]ncc3c2)NC(=O)N2CCC(N3Cc4ccccc4NC3=O)CC2)cc(Cl)n1 (racemic) [Example 93, (±)-N-(1-(1-((2-Chloro-6-methylpyridin-4-yl)methyl)-1H-imidazol-2-yl)-2-(7-methyl-1H-indazol-5-yl)ethyl)-4-(2-oxo-1,2-dihydroquinazolin-3(4H)-yl)piperidine-1-carboxamide] the IC50 was less than 10 nM.
Cc1cc(CC(CC(=O)N2CCC(N3Cc4ccccc4NC3=O)CC2)c2ccc(C=O)cn2)cc2cn[nH]c12 (racemic) [Example 28, (±)-6-(1-(7-Methyl-1H-indazol-5-yl)-4-oxo-4-(4-(2-oxo-1,2-dihydroquinazolin-3(4H)-yl)piperidin-1-yl)butan-2-yl)nicotinaldehyde] showed an IC50 of less than 10 nM.
With Cc1cccnc1C(CC(=O)N1CCC(N2Cc3ccccc3NC2=O)CC1)Cc1cc(C)c2[nH]ncc2c1 (racemic) [Example 25, (±)-3-(1-(4-(7-Methyl-1H-indazol-5-yl)-3-(3-methylpyridin-2-yl)butanoyl)piperidin-4-yl)-3,4-dihydroquinazolin-2(1H)-one] the IC50 was less than 10 nM.
With Cc1cc(CC(NC(=O)N2CCC(N3Cc4cccc(F)c4NC3=O)CC2)c2nnn(CC3CCNCC3)n2)cc2cn[nH]c12 (racemic) [Example 82, (±)-4-(8-Fluoro-2-oxo-1,2-dihydroquinazolin-3(4H)-yl)-N-(2-[7-methyl-1H-indazol-5-yl]-1-[2-(piperidin-4-ylmethyl)-1H-tetrazol-5-yl]ethyl)piperidin-1-carboxamide] the IC50 was 10 to 100 nM.
